# Laboratory results as given in patent US20170239212A1, “[…] AND USE THEREOF AS ANTIVIRAL AGENTS” (priority 2014, published 2017).
# Like-named read-outs stand apart in the source and are kept apart here.
# Legend:
# [1] = ester bond, 2,4,6-trichlorobenzoyl chloride / Et3N / DMAP, toluene, 40.0 °C, 14.0 h
# [2] = system: HIV long terminal repeat (LTR) promoter; experiment: cells; format: cell-based; conditions: Jurkat cells; for EC50: Human immunodeficiency virus 1, LTR-luciferase, incubated 24, 48 and 72 hours (time of the listed values not stated); for selectivity ratio: human; for selectivity ratio / Selectivity (CC50:EC50): ratio of the CC50 to the EC50
# Method: (§1) The compounds were also tested in the T cell derived Jurkat cell line transfected with a luciferase reporter under control of an HIV long terminal repeat (LTR) promoter. Specifically, EC50 and CC50 values were determined in parallel using 10 concentrations of compound from 3 fold serial dilutions starting a 5 uM as the highest concentration. Cells and media were added to compounds with a final concentration of DMSO of 1% and incubated at 37° C., 5% CO2 for 24, 48 and 72 hours. EC50 was measured by induced luciferase activity detected by the use of the Steady-Glo® Luciferase reagent (PROMEGA) with an EnVision (Perkin-Elmer) plate reader. CC50 was determined by the dose dependent knock down of cellular ATP detected by the use of CellTiter-Glo® Luminescent Cell Viability reagent (PROMEGA) with an EnVision (Perkin-Elmer) plate reader.
# in vitro = format: cell-based; conditions: human; Jurkat cells, knock down of cellular ATP
# Method: as §1
# [3] = system: human osteosarcoma (HOS) cells; experiment: HOS cell viability (CellTiter-Glo, cellular ATP); format: cell-based; set-up: unit not given here; conditions: knock down of cellular ATP
# Method: as §1, with “Specifically,” for “The compounds were also tested in the T cell derived Jurkat cell line transfected with a luciferase reporter under control of an HIV long terminal repeat (LTR) promoter. Specifically,”
# [4] = system: HIV long terminal repeat (LTR) promoter; experiment: HOS LTR stimulation assay (luciferase reporter); format: cell-based; conditions: HOS cells
# Method: In the assay, non T cell derived human osteosarcoma (HOS) cells are transfected with a luciferase reporter under control of an HIV long terminal repeat (LTR) promoter. Compounds that stimulate the HIV LTR promoter will produce luciferase in a dose dependent manner.
# as §1, with “Specifically,” for “The compounds were also tested in the T cell derived Jurkat cell line transfected with a luciferase reporter under control of an HIV long terminal repeat (LTR) promoter. Specifically,”
# The error bars represent the average and the standard error of the mean of at least three independent experiments.
# U937 cells [5] = experiment: Inhibition of U937 cell proliferation; format: cell-based, human
# Method: (§2) U937 cells (Sundstrom, C.; Nilsson, K.: Establishment and characterization of a human histiocytic lymphoma cell line (U-937). Int. J. Cancer 1976, 17: 565-577), purchased from ATCC (Manassas, Va.) and cultured in RPMI-1640 medium supplemented with 10% FBS (ATCC, Manassas, Va.), were plated in 35 mm dishes at a density of 2×10^5 living cells/ml and treated with different concentrations of the drugs or DMSO. After 72 hours, the number of cells in the supernatant (non-attached cells) and the number of attached cells (after trypsinization) were counted using a Beckman particle counter (Beckman Coulter Inc., Fullerton, Calif.). The number of attached cells is expressed as percent of total cells (FIGS. 8-10).
# (§3) U937 cells were treated with PMA (0.1-100 nM), bryostatin 1 (1-1000 nM), the indicated compound (1-1000 nM), 10 nM PMA with different concentrations of bryostatin 1 (1-1000 nM) or 10 nM PMA with different concentrations of indicated compound (1-1000 nM). The number of attached and non-attached cells was counted and the number of total cells was expressed as % of control. The bars and error bars represent the average and the standard error of the mean of five independent experiments (FIGS. 8-10).
# (§4) U937 cells (Sundstrom and Nilsson, 1976), purchased from ATCC (Manassas, Va.) and cultured in RPMI-1640 medium supplemented with 10% FBS (ATCC, Manassas, Va.), were plated in 35 mm dishes at a density of 1×10^5 living cells/ml and treated with different concentrations of the drugs or DMSO. After 72 hours, the number of cells in the supernatant (non-attached cells) and the number of attached cells (after trypsinization) were counted using a particle counter. The number of attached cells is expressed as percent of total cells.
# (§5) U937 cells were treated with PMA (0.01-100 nM), bryostatin 1 (0.1-1000 nM), analogue 12 (MERLE 28) (0.1-1000 nM), 10 nM PMA with different concentrations of bryostatin 1 (0.1-1000 nM) or 10 nM PMA with different concentrations of analogue 12 (0.1-1000 nM). The numbers of attached and non-attached cells were counted and the number of total cells was expressed as % of control. The bars and error bars represent the average and the standard error of the mean of at least three independent experiments.
# as §4
# as §3, with “at least three” for “five”, “experiments.” for “experiments (FIGS. 8-10).”
# U937 cells [6] = experiment: Attachment of U937 cells; format: cell-based, human; conditions: 72 hours
# Method: as §2
# (§6) U937 cells were treated with PMA (0.1-100 nM), bryostatin 1 (1-1000 nM), the indicated compound (1-1000 nM), 10 nM PMA with different concentrations of bryostatin 1 (1-1000 nM) or 10 nM PMA with different concentrations of indicated compound (1-1000 nM) for 72 hours. The number of attached cells and total cells were counted and the attached cells were graphed as percent of total cells. The bars and error bars represent the average and the standard error of the mean of five independent experiment (FIGS. 8-10).
# as §4
# as §5, with “number” for “numbers”, “attached cells” for “attached”, “total” for “non-attached”, “attached cells were graphed as percent” for “number”, “cells.” for “cells was expressed as % of control.”
# as §4
# as §6, with “at least three” for “five”, “experiments.” for “experiment (FIGS. 8-10).”
# [7] = 10 nM PMA with different concentrations of compound
structure (smiles),measurement,setting,value
C=C1C[C@@H]2C[C@@H]3CC(=C)C[C@H](/C=C/C(C)(C)[C@]4(OC)O[C@@H](C/C(=C\C(=O)OC)[C@@H]4OC(=O)/C=C/C=C/CCC)C[C@H]([C@@H](C)OCOCc4ccccc4)OC(=O)C[C@H](OCc4ccc(OC)cc4)C[C@H](C1)O2)O3,"ring closure, yield of all isomers","[1]; from C=C1C[C@H](C[C@@H]2CC(=C)C[C@H](/C=C/C(C)(C)[C@]3(OC)O[C@H](C[C@@H](O)[C@@H](C)OCOCc4ccccc4)C/C(=C\C(=O)OC)[C@@H]3OC(=O)/C=C/C=C/CCC)O2)O[C@H](C[C@H](CC(=O)O)OCc2ccc(OC)cc2)C1, 0.74 mM, 2 steps",52%
C=C1C[C@@H]2C[C@@H]3CC(=C)C[C@H](/C=C/C(C)(C)[C@]4(OC)O[C@@H](C/C(=C\C(=O)OC)[C@@H]4OC(C)=O)C[C@H]([C@@H](C)OCOCc4ccccc4)OC(=O)C[C@H](OCc4ccc(OC)cc4)C[C@H](C1)O2)O3,"ring closure, yield of all isomers","[1]; from C=C1C[C@H](C[C@@H]2CC(=C)C[C@H](/C=C/C(C)(C)[C@]3(OC)O[C@H](C[C@@H](O)[C@@H](C)OCOCc4ccccc4)C/C(=C\C(=O)OC)[C@@H]3OC(C)=O)O2)O[C@H](C[C@H](CC(=O)O)OCc2ccc(OC)cc2)C1, 0.97 mM, 2 steps",58%
C=C1C[C@@H]2C[C@@H]3CC(=C)C[C@H](/C=C/C(C)(C)[C@]4(OC)O[C@@H](CCC4=O)C[C@H]([C@@H](C)OCOCc4ccccc4)OC(=O)C[C@H](OCc4ccc(OC)cc4)C[C@H](C1)O2)O3,"ring closure, yield of all isomers","[1]; from C=C1C[C@H](C[C@@H]2CC(=C)C[C@H](/C=C/C(C)(C)[C@]3(OC)O[C@H](C[C@@H](O)[C@@H](C)OCOCc4ccccc4)CCC3=O)O2)O[C@H](C[C@H](CC(=O)O)OCc2ccc(OC)cc2)C1, 0.85 mM, 2 steps",87%
C=C1C[C@H]2C[C@H]3C[C@@H](O[Si](CC)(CC)CC)C[C@@H](C[C@@H](OCc4ccc(OC)cc4)CC(=O)O[C@@H]([C@@H](C)OCOCc4ccccc4)C[C@@H]4C/C(=C\C(=O)OC)[C@H](OC(=O)CCCCCCC)[C@@](OC)(O4)C(C)(C)/C=C/[C@@H](C1)O2)O3,"ring closure, yield of all isomers","[1]; from C=C1C[C@@H](C[C@H]2C[C@@H](O[Si](CC)(CC)CC)C[C@@H](C[C@H](CC(=O)O)OCc3ccc(OC)cc3)O2)O[C@@H](/C=C/C(C)(C)[C@]2(OC)O[C@H](C[C@@H](O)[C@@H](C)OCOCc3ccccc3)C/C(=C\C(=O)OC)[C@@H]2OC(=O)CCCCCCC)C1, 0.79 mM",91%
C=C1C[C@H]2C[C@]3(OC)O[C@H](C[C@@H](O[Si](CC)(CC)CC)CC(=O)O[C@@H]([C@@H](C)OCOCc4ccccc4)C[C@@H]4C/C(=C\C(=O)OC)[C@H](OC(=O)/C=C/C=C/CCC)[C@@](OC)(O4)C(C)(C)/C=C/[C@@H](C1)O2)C[C@H](OC(C)=O)C3(C)C,"ring closure, yield of all isomers","[1]; from C=C1C[C@@H](C[C@]2(OC)O[C@H](C[C@H](CC(=O)O)O[Si](CC)(CC)CC)C[C@H](OC(C)=O)C2(C)C)O[C@@H](/C=C/C(C)(C)[C@]2(OC)O[C@H](C[C@@H](O)[C@@H](C)OCOCc3ccccc3)C/C(=C\C(=O)OC)[C@@H]2OC(=O)/C=C/C=C/CCC)C1, 0.62 mM, 2 steps",62%
C=C1C[C@@H]2C[C@@H]3CC(=C)C[C@H](/C=C/C(C)(C)[C@]4(O)O[C@@H](C/C(=C\C(=O)OC)[C@@H]4OC(=O)/C=C/C=C/CCC)C[C@H]([C@@H](C)O)OC(=O)C[C@H](O)C[C@H](C1)O2)O3 [MERLE 23],EC50,[2],0.2 nM
same,selectivity ratio,[2],25
same,CC50,in vitro,5 nM
same,CCEC50,[3],39.57
same,Max signal (% of control),[4]; LTR-luciferase signal,166 % of control
same,Conc (uM) at Max,[4]; concentration at maximal LTR-luciferase signal,0.07 µM
same,EC50,"[4]; Human immunodeficiency virus 1, LTR-luciferase, incubated 24, 48 and 72 hours (time of the listed values not stated), read-out: EC50",2 nM
C=C1C[C@H]2CC3(O)O[C@H](C[C@@H](O)CC(=O)O[C@@H]([C@@H](C)O)C[C@@H]4C/C(=C\C(=O)OC)[C@H](OC(=O)/C=C/C=C/CCC)[C@@](O)(O4)C(C)(C)/C=C/[C@@H](C1)O2)C[C@H](OC(C)=O)C3(C)C [MERLE 28],Block of PMA inhibition of U937 cell proliferation,U937 cells [5]; [7],Both of these aspects of bryostatin 1 induced biological response are captured
same,Inhibition of U937 cell proliferation (total cells as % of control),"U937 cells [5]; compound alone, 72 hours",very similar to those for bryostatin 1
same,Block of PMA-induced attachment of U937 cells,U937 cells [6]; [7],blocks the effect of the phorbol ester when the two agents are administered together
same,Attachment of U937 cells (attached cells as percent of total),U937 cells [6]; compound alone,approaches that of bryostatin 1 itself
C=C1CC2C[C@@H](O)CC(=O)O[C@@H]([C@@H](C)O)C[C@@H]3C/C(=C\C(=O)OC)[C@H](OC(C)=O)[C@@](O)(O3)C(C)(C)/C=C/[C@H]3CC(=C)C[C@@H](C[C@@H](C1)O2)O3 [MERLE 35],EC50,[2],10 nM
same,Selectivity (CC50:EC50),[2],greater than one
same,selectivity ratio,[2],5
same,CC50,in vitro,50 nM
C=C1CC2C[C@@H](O)CC(=O)O[C@@H]([C@@H](C)O)C[C@@H]3C/C(=C\C(=O)OC)[C@H](OC(=O)CCCCCN(C)C)[C@@](O)(O3)C(C)(C)/C=C/[C@H]3CC(=C)C[C@@H](C[C@@H](C1)O2)O3 [MERLE 37],EC50,[2],80 nM
same,Selectivity (CC50:EC50),[2],greater than one
same,selectivity ratio,[2],6.9
same,CC50,in vitro,550 nM
